Data: the RepoRT retention time repository

Test: RP, Thermo Scientific Hypersil GOLD, 200 × 2.1 mm, 1.9 µm, 40 °C, 0.4 mL/min, estimated dead time 1.1 min; A: water + 0.2% formic acid; B: acetonitrile; gradient (min/%B) 0/10 0.5/10 22/100 30/100 30.2/10 35/10
Conditions: stereoisomer not certain

LC retention time [min]	SMILES
5.43	O=c1ccc2ccc(O)cc2o1 [7-hydroxycoumarin]
16.6	CC1(C(=O)O)CCC2(C)CCC3(C)C(=CC(=O)C4C5(C)CCC(O)C(C)(C)C5CCC43C)C2C1 (stereo not drawn) [18beta-glycyrrhetinic acid]
19.3	CC(C)C1=CC2=CCC3C(C)(C(=O)O)CCCC3(C)C2CC1 (centres undefined) [abietic acid]
12.7	CC1CCC2(C(=O)O)CCC3(C)C(=CCC4C5(C)CC(O)C(O)C(C)(CO)C5CCC43C)C2C1C (centres undefined) [asiatic acid]
18.8	C=C(C)C1CCC2(C(=O)O)CCC3(C)C(CCC4C5(C)CCC(O)C(C)(C)C5CCC43C)C12 (centres undefined) [betulinic acid]
12.2	O=C(C=Cc1ccc(O)c(O)c1)OCCc1ccccc1 [caffeic acid phenylethyl ester]
3.21	O=C(C=Cc1ccc(O)c(O)c1)OC1CC(O)(C(=O)O)CC(O)C1O (centres undefined) [chlorogenic acid]
1.6	O=C(O)c1cc(O)c(O)c(O)c1 [gallic acid]
6.61	COc1ccc(C2CC(=O)c3c(O)cc(OC4OC(CO)C(O)C(O)C4OC4OC(C)C(O)C(O)C4O)cc3O2)cc1O (centres undefined) [hesperetin 7-O-neohesperidoside]
6.39	COc1ccc(C2CC(=O)c3c(O)cc(OC4OC(COC5OC(C)C(O)C(O)C5O)C(O)C(O)C4O)cc3O2)cc1O (centres undefined) [hesperetin 7-rutinoside]
9.3	COc1ccc(C2CC(=O)c3c(O)cc(O)cc3O2)cc1O (centres undefined) [hesperetin]
2.46	OCCc1ccc(O)c(O)c1 [hydroxytyrosol]
9.25	COc1cc(-c2oc3cc(O)cc(O)c3c(=O)c2O)ccc1O [isorhamnetin]
5.64	CC1OC(OCC2OC(Oc3c(-c4ccc(O)cc4)oc4cc(O)cc(O)c4c3=O)C(O)C(O)C2O)C(O)C(O)C1O (centres undefined) [kaempferol 3-rutinoside]
9.01	O=c1c(O)c(-c2ccc(O)cc2)oc2cc(O)cc(O)c12 [kaempferol]
7.24	COc1cc(CC2COC(c3ccc(O)c(OC)c3)C2CO)ccc1O (centres undefined) [lariciresinol]

LC retention time [min]	SMILES
7.75	O=c1cc(-c2ccc(O)c(O)c2)oc2cc(O)cc(O)c12 [luteolin]
3.86	COc1cc(-c2[o+]c3cc(O)cc(O)c3cc2OC2OC(CO)C(O)C(O)C2O)cc(OC)c1O (centres undefined) [malvidin 3-glucoside]
6.18	CC1OC(OC2C(Oc3cc(O)c4c(c3)OC(c3ccc(O)cc3)CC4=O)OC(CO)C(O)C2O)C(O)C(O)C1O (centres undefined) [naringenin 7-O-neohesperidoside]
8.88	O=C1CC(c2ccc(O)cc2)Oc2cc(O)cc(O)c21 (centres undefined) [naringenin]
7.05	CC=C1C(OC2OC(CO)C(O)C(O)C2O)OC=C(C(=O)OC)C1CC(=O)OCCc1ccc(O)c(O)c1 (centres undefined) [oleuropein]
5.04	O=C(O)/C=C/c1ccc(O)cc1 [p-coumaric acid]
4.21	O=C(C=Cc1ccc(O)cc1)OC1CC(O)(C(=O)O)CC(O)C1O (centres undefined) [p-coumarlyquinnic acid]
6.77	O=C(CCc1ccc(O)cc1)c1c(O)cc(O)cc1OC1OC(CO)C(O)C(O)C1O (centres undefined) [phloridzin]
2.41	O=C(O)c1ccc(O)c(O)c1 [protocatechuic acid]
6.02	CC1OC(Oc2c(-c3ccc(O)c(O)c3)oc3cc(O)cc(O)c3c2=O)C(O)C(O)C1O (centres undefined) [quercetin 3-rhamnoside]
5.07	CC1OC(OCC2OC(Oc3c(-c4ccc(O)c(O)c4)oc4cc(O)cc(O)c4c3=O)C(O)C(O)C2O)C(O)C(O)C1O (centres undefined) [quercetin 3-rutinoside]
6.25	O=c1c(O)c(-c2ccc(OC3OC(CO)C(O)C(O)C3O)c(O)c2)oc2cc(O)cc(O)c12 (centres undefined) [quercetin 4'-glucoside]
7.8	O=c1c(O)c(-c2ccc(O)c(O)c2)oc2cc(O)cc(O)c12 [quercetin]
6.86	COc1cc(CC(CO)C(CO)Cc2ccc(O)c(OC)c2)ccc1O (centres undefined) [secoisolariciresinol]
19.2	CC1CCC2(C(=O)O)CCC3(C)C(=CCC4C5(C)CCC(O)C(C)(C)C5CCC43C)C2C1C (centres undefined) [ursolic acid]

SMILES	LC retention time [min]
CC1CCC2C(C)C3C(CC4C5CC=C6CC(OC7OC(CO)C(OC8OC(C)C(O)C(O)C8O)C(O)C7OC7OC(C)C(O)C(O)C7O)CCC6(C)C5CCC43C)N2C1 (stereo not drawn) [alpha-chaconine]	7.97
CC1CCC2C(C)C3C(CC4C5CC=C6CC(OC7OC(CO)C(O)C(OC8OC(CO)C(O)C(O)C8O)C7OC7OC(C)C(O)C(O)C7O)CCC6(C)C5CCC43C)N2C1 (stereo not drawn) [alpha-solanine]	7.91
CC1CCC2(NC1)OC1CC3C4CCC5CC(OC6OC(CO)C(OC7OC(CO)C(O)C(OC8OCC(O)C(O)C8O)C7OC7OC(CO)C(O)C(O)C7O)C(O)C6O)CCC5(C)C4CCC3(C)C1C2C (centres undefined) [tomatin]	7.55
